Data as given in US20260256728A1, “TREATMENT FOR ASYMPTOMATIC STARGARDT DISEASE PATIENTS” (priority 2024, published 2026).
“Also recorded” adds a separate entry of the source.

Experiments:
[1] = in vivo
[2] = test system: asymptomatic Stargardt disease patients; assay: TEASE-3 photoreceptor loss (ellipsoid zone band loss) by optical coherence tomography; type: in vivo, human
Method: FIG. 5 is a graph showing retinal photoreceptor loss over time in three asymptomatic Stargardt disease patients taking gildeuretinol acetate 14 mg daily. Lines are piecewise linear regressions with a knot time of 6 months and show the mean area of retinal photoreceptor loss of both eyes. Each symbol represents the area of photoreceptor loss for one eye. To measure photoreceptor loss, the ellipsoid zone layer was evaluated on b-scans acquired on Heidelberg engineering optical coherence tomography (Heidelberg, Germany).
(§1) The tolerability and effects of ALK-001 (gildeuretinol acetate) in Stargardt Disease (Clinical trial group 3, also known as TEASE-3) study was an open-label, multicenter, case control study designed to evaluate the efficacy and safety of gildeuretinol acetate on the progression of Stargardt disease in asymptomatic individuals. The trial was conducted at multiple sites in the United States.
(§2) Patients received gildeuretinol acetate 14 mg capsules, to be taken orally once daily. Trial visits occurred every 6 months approximately following screening and treatment start visits.
(§3) Disease progression was monitored by best-corrected visual acuity (BCVA) reported in number of Early Treatment Diabetic Retinopathy Study (ETDRS) letters, fundus autofluorescence (FAF) imaging, loss of photoreceptors (as measured by the ellipsoid zone band loss) by optical coherence tomography (OCT) and retinal sensitivity by microperimetry.
(§4) Measurements from the left and right eye for each patient were averaged for each visit to produce a single statistical unit for both eyes. For segmented linear regressions, knot times were selected so that three visits were included in the first segment.

[3] = TEASE-3 plasma gildeuretinol; type: in vivo, human; settings: 14 mg daily
Method: as §1
(§5) To assess the safety and efficacy of gildeuretinol acetate in preventing vision loss in asymptomatic individuals, gildeuretinol acetate 14 mg capsules were administered to individuals showing early signs of retinal damage while maintaining approximately 20/20 vision and no subjective loss of vision. […] Based on the above family history and clinical observations, the asymptomatic individuals were likely to develop retinal lesions, loss of photoreceptors, drops in retinal sensitivity, loss of visual acuity, indicating the onset of symptoms, i.e. a progression to the symptomatic phase, including vision loss within two years, mirroring the progression observed in their older siblings.
as §2

[4] = TEASE-3 safety; type: in vivo, human; settings: three patients, 14 mg daily
Method: The tolerability and effects of ALK-001 (gildeuretinol acetate) in Stargardt Disease (Clinical trial group 3, also known as TEASE-3) study was an open-label, multicenter, case control study designed to evaluate the efficacy and safety of gildeuretinol acetate on the progression of Stargardt disease in asymptomatic individuals. The trial was conducted at multiple sites in the United States. Patients received gildeuretinol acetate 14 mg capsules, to be taken orally once daily. Trial visits occurred every 6 months approximately following screening and treatment start visits. Ocular safety was assessed by retinal imaging and ocular exam, which included evaluation of the anterior and posterior segments and the lens. Systemic safety was assessed by physical exam, comprehensive clinical labs (biochemistry, hematology, lipids), and 12-lead ECG.

[5] = test system: asymptomatic Stargardt disease patients; assay: TEASE-3 best-corrected visual acuity (BCVA); type: in vivo, human
Method: as §1, §5
Testing asymptomatic individuals in the absence of a potential intervention is, therefore, controversial. All asymptomatic Stargardt disease patients were thus administered gildeuretinol acetate. Specific dose levels were not disclosed to the patients. Disease progression was compared to the symptomatic siblings with identical genetic mutations when aged-matched who had not received gildeuretinol acetate.
as §2, §3, §4

[6] = TEASE-1 plasma gildeuretinol (replacement of plasma vitamin A); type: in vivo, human; settings: for percentage of gildeuretinol over total vitamin A (as retinol+gildeuretinol): plasma, 8-week pharmacokinetic analysis
Method: The Tolerability and Effects of gildeuretinol acetate in Stargardt Disease (Clinical trial group 1, also known as TEASE-1) was a 24-month, multicenter, double-masked, placebo-controlled trial designed to evaluate the efficacy and safety of daily oral gildeuretinol acetate in slowing the growth of atrophic retinal lesions in Stargardt disease patients. The trial was conducted at multiple sites in the United States (NCT02402660).
Patients 12 years or older, clinically diagnosed with Stargardt disease, with at least one ABCA4 mutation, at least one eye presenting with well-demarcated areas of reduced fundus autofluorescence including retinal atrophic lesions, and with any visual acuity, were enrolled.
Patients were randomized to gildeuretinol acetate 14 mg capsules, gildeuretinol acetate 24 mg capsules, or placebo capsules, to be taken once daily for one year. After one year, 50% of randomly selected patients receiving placebo were crossed over in a 1:1 ratio to gildeuretinol acetate 14 mg capsules or gildeuretinol acetate 24 mg capsules for a second year.
Gildeuretinol acetate and placebo capsules were identical appearing capsules. Patients were advised to avoid vitamin A-containing supplements and liver-based products. Fruits and vegetables could be consumed without limitation. Trial visits occurred at 8 weeks and 6, 12, 18, and 24 months following screening and randomization.

Compound: [2H]C([2H])([2H])C(/C=C/C=C(C)/C=C/C1=C(C)CCCC1(C)C)=C\COC(C)=O [gildeuretinol acetate]
- Patients experiencing event (%): Ear infection [1]: 1 (10.0)
- Patients experiencing event (%): Gastroenteritis viral [1]: 0
- Patients experiencing event (%): Herpes zoster [1]: 0
- Patients experiencing event (%): Skin infection [1]: 0
- Patients experiencing event (%): Upper respiratory tract infection [1]: 2 (20.0)
- changes in visual acuity [1]: No changes in visual acuity were observed
- discontinuation of treatment due to side effects [1]: no patient discontinued treatment due to side effects
- serious adverse events associated with treatment [1]: No serious adverse events
- severity of adverse events [1]: mild or moderate
- progression of photoreceptor loss ([2]; first six months of treatment, average of two treated patients): approximately 0.18 mm^2/year
- photoreceptor loss trend ([2]; following years of treatment): trended toward an improvement
- photoreceptor loss, third patient ([2]; full treatment period): no photoreceptors were lost
- average area of photoreceptor loss ([2]; in vivo): 0.36±0.32 mm^2
- average area of photoreceptor loss as share of the foveal area ([2]; in vivo): 20%
- replacement of plasma vitamin A sustained throughout the treatment period [3]: Over 80%
- replacement of plasma vitamin A (retinol) with gildeuretinol ([3]; after the first two months, all three participants): 80%
- adverse reactions linked to excessive or insufficient vitamin A (delays in dark adaptation, night blindness) [4]: None of the three Stargardt disease asymptomatic patients exhibited adverse reactions
- effect on vision loss ([5]; asymptomatic Stargardt disease patients, 14 mg daily, up to four years): effectively prevented vision loss and further retinal damage; also recorded: completely prevented vision loss; also recorded: arrested loss of vision and retinal pathology
- average BCVA improvement versus untreated siblings, lines of vision on the ETDRS eyechart ([5]; in vivo): four
- visual acuity (Snellen) ([5]; treated asymptomatic patients): ~ 20/20 and approximately 20/20
- BCVA ([5]; treated siblings, 14 mg daily, 2-4 years): 88±4 ETDRS letters
- average BCVA improvement versus untreated age-matched siblings ([5]; untreated siblings 66±10 ETDRS letters): 22±13 letters
- replacement of plasma vitamin A sustained throughout the treatment period ([6]; 14 or 24 mg daily, 24 months): greater than 80%
- patients in whom over 80% of plasma vitamin A was replaced ([6]; after six months): 39 out of 40
- serum vitamin A replaced with gildeuretinol ([6]; daily doses approximately 14 to 24 mg, within a matter of weeks): more than 80%
- total plasma vitamin A and retinoic acid (combined vitamin A and gildeuretinol-derived forms) versus placebo group ([6]; in vivo): the same
- percentage of gildeuretinol over total vitamin A (as retinol+gildeuretinol) ([6]; 14 mg cohort): 87%
- percentage of gildeuretinol over total vitamin A (as retinol+gildeuretinol) ([6]; 24 mg cohort): 92%
